In assay [1] the test system is croton oil induced inflammation on the mouse ear. In words: effect of repeated topical application on anti-inflammatory properties in the croton oil induced inflammation test. It is filed as in vivo, albino mouse (Alderley Park Strain). To be noted: single application immediately after croton oil; rate approximately 4 × IC50.
Assay [2] has the same test system. Described as above. The class given is in vivo, albino mouse (Alderley Park Strain). To be noted: for Percentage reduction in croton oil induced inflammation, Four Applns: four applications (3, 2, 1 day before and immediately after croton oil), rate approximately 4 × IC50. From the text: (b) An indication of the effect of repeated topical application of a test compound on its anti-inflammatory properties was obtained as follows:
first application received 3 days before croton oil;
second application received 2 days before croton oil;
third application received 1 day before croton oil; and
fourth application received immediately after croton oil.

The test system is the same in assay [3]. As to the kind of experiment: croton oil induced inflammation test on the mouse ear, single topical application. It is filed as in vivo, albino mouse (Alderley Park Strain). As to conditions: 4 hours after croton oil. On the procedure: A 4% v/v solution of croton oil in (acetone) was prepared. A portion (10 μl.) of this solution was applied to the right ear of an albino mouse (Alderley Park Strain, specific pathogen free). This was followed by immediate application of a portion (10 μl.) of a solution of test compound in ethanol to the same ear of the mouse. This procedure was repeated for a total of ten mice.
After 4 hours the mice were sacrificed and both ears from each mouse were removed and weighed. The increase in weight of the right over the left ear for each mouse was then determined and an average obtained for the group as a whole. […] The percentage inhibition of croton oil induced inflammation was then calculated for the test compound.

Assay [4] has the same test system. As to conditions: known from earlier patent publications (UK 1591618); cited from earlier work.

As to `CC(C)(CNC(=O)c1cc(Cl)ccn1)NCC(O)c1ccc(OC(=O)C(C)(C)C)c(OC(=O)C(C)(C)C)c1` (centres unmarked) [4-chloro-2-pyridyl], the “Percentage reduction in croton oil induced inflammation, Single Appln” value (“Percentage reduction … Single Appln” for short) in assay [1] turned out to be 68%. Further, the “Percentage reduction in croton oil induced inflammation, Four Applns” value (“Percentage reduction … Four Applns” below) in assay [2] is recorded as 33%. Besides, the “IC50 (amount of test compound per ear which inhibited the inflammation by 50%)” value in assay [3] stood at 7 μg/ear.

Consider `CC(C)(CNC(=O)c1cccs1)NCC(O)c1ccc(OC(=O)C(C)(C)C)c(OC(=O)C(C)(C)C)c1` (centres unmarked) [Example 2-thienyl], for which the “Percentage reduction … Single Appln” value in assay [1] is 71%. Further, the “Percentage reduction … Four Applns” value in assay [2] is recorded as 33%. Further, the “IC50 (amount of test compound per ear which inhibited the inflammation by 50%)” value in assay [3] turned out to be 7 μg/ear.

For the molecule `CC(C)(CNC(=O)c1ccoc1)NCC(O)c1ccc(OC(=O)C(C)(C)C)c(OC(=O)C(C)(C)C)c1` (centres unmarked) [Example 3-furyl], in assay [1], the “Percentage reduction … Single Appln” value is reported as 65%. The “Percentage reduction … Four Applns” value in assay [2] was 45%. In addition, the “IC50 (amount of test compound per ear which inhibited the inflammation by 50%)” value in assay [3] is on record as 2 μg/ear.

Take `CC(C)(CNC(=O)c1ccco1)NCC(O)c1ccc(OC(=O)C(C)(C)C)c(OC(=O)C(C)(C)C)c1` (centres unmarked) [Example 7, 4-(1-hydroxy-2-[2-(2-furylcarboxyamido)-1,1-dimethyl-ethylamino]ethyl)catechol dipivaloyl ester]: in assay [1], the “Percentage reduction … Single Appln” value stood at 60%. For the same molecule, the “Percentage reduction … Four Applns” value in assay [2] came to 64%. Also, in assay [3], the “IC50 (amount of test compound per ear which inhibited the inflammation by 50%)” value came out at 13 μg/ear.

In the case of `CC(C)(CNC(=O)c1cc2ccccc2o1)NCC(O)c1ccc(OC(=O)C(C)(C)C)c(OC(=O)C(C)(C)C)c1` (centres unmarked) [Example 8, 4-(1-hydroxy-2-[1,1-dimethyl-2-(2-benzo[b]furyl-carboxamido)ethylamino]ethyl)catechol dipivaloyl ester], the “Percentage reduction … Single Appln” value in assay [1] is reported as 61%. In assay [2], the “Percentage reduction … Four Applns” value stood at 59%. Moreover, in assay [3], the “IC50 (amount of test compound per ear which inhibited the inflammation by 50%)” value is 11 μg/ear.

On to `CC(C)(CNC(=O)c1cc2ccccc2s1)NCC(O)c1ccc(OC(=O)C(C)(C)C)c(OC(=O)C(C)(C)C)c1` (centres unmarked) [Example 9, 4-(1-hydroxy-2-[1,1-dimethyl-2-(2-benzo[b]thienylcarboxamido)ethylamino]ethyl)catechol dipivaloyl ester], for which the “Percentage reduction … Single Appln” value in assay [1] is recorded as 64%. In addition, the “Percentage reduction … Four Applns” value in assay [2] amounted to 65%. For the same molecule, the “IC50 (amount of test compound per ear which inhibited the inflammation by 50%)” value in assay [3] came out at 23 μg/ear.

Regarding `CC(C)(CNCC(O)c1ccc(OC(=O)C(C)(C)C)c(OC(=O)C(C)(C)C)c1)NC(=O)COc1ccccc1` (centres unmarked) [phenoxymethyl, 4-(1-hydroxy-2-[2-methyl-2-(phenoxyacetamido)-propylamino]ethyl)catechol dipivaloyl ester], the “Percentage reduction … Single Appln” value in assay [1] amounted to 60%. Further, in assay [2], the “Percentage reduction … Four Applns” value worked out at 23%. Besides, the “reduction in topical anti-inflammatory properties after repeated topical applications” value in assay [2] (two or more / several topical applications spaced over several days) is given as “significant reduction in topical anti-inflammatory properties”. Moreover, in assay [3], the “IC50 (amount of test compound per ear which inhibited the inflammation by 50%)” value came out at 2.5 μg/ear. The topical anti-inflammatory properties result in assay [4] is reported as “potent topical anti-inflammatory properties”.

Values taken from patent US4568691A, “Anti-inflammatory esters of 4-(1-hydroxy-2-[(acylamino)-alkylamino]-ethyl)-phenol derivatives, compositions, and method of use therefor” (Imperial Chemical Industries, PLC, priority 1981, dated 1986).
